Experiment in all cases: biochemical
In assay [1] the target is T1, K103N/Y181C double mutant RT (HIV-1 RT) (Human immunodeficiency virus type 1 group M subtype B, UniProt P03366, K702N/Y780C).
T1 construct: mutations that occur in the reverse transcriptase segment of the pol gene
An excerpt: (§1) Based upon testing of these compounds, as described below, it is known that they inhibit the RNA-dependent DNA polymerase activity of HIV-1 RT. […] Utilising the Reverse Transcriptase (RT) Assay described below, compounds can be tested for their ability to inhibit the RNA-dependent DNA polymerase activity of HIV-1 RT. Certain specific compounds described in the Examples which appear below, were so tested. The results of this testing appear in Table 4 as IC50 (nM) and Table 5 as EC50 (nM).
(§2) Reverse TranscriptASE (RT) Assays
(§3) The assays are as described in WO 01/96338A1, the contents of which are hereby incorporated herein. The results are listed in Tables 8 as IC50(nM) and EC50(nM).

The target of assay [2] is T2, V106A mutant RT (HIV-1 RT) (Human immunodeficiency virus type 1 group M subtype B, UniProt P03366, V705A).
T2 construct: mutations that occur in the reverse transcriptase segment of the pol gene
Conditions: for IC50: IC50 V106A (nM); for pIC50: read-out: IC50 V106A.
Excerpt: as §1, §2, §3

Assay [3] deals with T3, Y188L mutant RT (HIV-1 RT) (Human immunodeficiency virus type 1 group M subtype B, UniProt P03366, Y787L).
T3 construct: mutations that occur in the reverse transcriptase segment of the pol gene
Conditions: for IC50: IC50 Y188L (nM); for pIC50: read-out: IC50 Y188L.
Excerpt: as §1, §2, §3

For the next assay, the target named is T4, WT RT (HIV-1 RT) (Human immunodeficiency virus type 1 group M subtype B, UniProt P03366).
T4 construct: mutations that occur in the reverse transcriptase segment of the pol gene
Excerpt: as §1, §2, §3

The mark [4] stands for this setting: K103N/Y181C double mutant RT, read-out: IC50 K103N/Y181C.
Where [5] appears, read: wild type RT, read-out: IC50 WT RT.
[6] abbreviates: read-out: IC50 K103N/Y181C, K103N/Y181C double mutant RT.
[7] abbreviates: read-out: IC50 WT RT, wild type RT.

SMILES strings stand for the structures. pIC50: −log10 of the molar value. Where two headings read alike, the source gives them in different places.

On to `CCN1c2ncc(CCOc3ccc(C(=O)O)c4ccccc34)cc2C(=O)N(C)c2ccc(C)nc21` [Entry 1003], for which the figures for the pIC50 (in assay [1]; at WT RT (HIV-1 RT)) were 6.00 to 7.00 and greater than 7.00, respectively. The IC50 in assay [2] and in assay [3] was greater than 1000 nM throughout.
As to `CCN1c2ncc(CCOc3ccc(C(=O)O)c4ccccc34)cc2C(=O)Nc2c(C)cc(F)nc21` [Entry 1004], the pIC50 in assay [1] is 6.00 to 7.00; against WT RT (HIV-1 RT), greater than 7.00. For the same compound, the IC50 in assay [2] is 100 to 1000 nM; in assay [3], greater than 1000 nM.
Regarding `CCN1c2ncc(CCOc3ccc(C(=O)O)c4ccccc34)cc2C(=O)Nc2c(C)ccnc21` [Entry 1005], the pIC50 in assay [1] is 6.00 to 7.00; on WT RT (HIV-1 RT), greater than 7.00. Also, the IC50 in assay [2] is 100 to 1000 nM; in assay [3], greater than 1000 nM.
For `CCN1c2ncc(CCOc3ccc(CC(=O)O)c4ccccc34)cc2C(=O)N(C)c2ccc(C)nc21` [Entry 1011], in that order: 6.00 to 7.00, greater than 7.00, greater than 1000 nM and greater than 1000 nM.
For `CCN1c2ncc(CCOc3ccc(CC(=O)O)c4ccccc34)cc2C(=O)Nc2c(C)ccnc21` [Entry 1013], the values for the pIC50 (in assay [1]; at WT RT (HIV-1 RT)) were less than 6.00 and greater than 7.00, respectively. Also, the IC50 in assay [2] and in assay [3] was greater than 1000 nM throughout.
With `CCN1c2ncc(CCOc3ccc(CC(=O)O)c4ccccc34)cc2C(=O)Nc2c(C)cc(F)nc21` [Entry 1014], the figures for the pIC50 (in assay [1]; against WT RT (HIV-1 RT)) were 6.00 to 7.00 and greater than 7.00, respectively. The IC50 was 100 to 1000 nM in assay [2] and greater than 1000 nM in assay [3].
Take `CCN1c2ncc(CCOc3ccc(CC(=O)NN)c4ccccc34)cc2C(=O)N(C)c2ccc(NN)nc21` [Entry 1017]: the pIC50 against WT RT (HIV-1 RT) is greater than 7.00.
With `CCN1c2ncc(CCOc3ccc(CC(N)=O)c4ccccc34)cc2C(=O)N(C)c2cccnc21` [Entry 1018], the pIC50 (in assay [1]; against WT RT (HIV-1 RT)) was greater than 7.00 each time. In addition, the IC50 in assay [2] is 100 to 1000 nM; in assay [3] it was greater than 1000 nM.
Turning to `CCN1c2ncc(CCOc3ccc(CCC(=O)O)c4ccccc34)cc2C(=O)Nc2c(C)ccnc21` [Entry 1024], the values for the pIC50 (in assay [1]; at WT RT (HIV-1 RT)) were less than 6.00 and greater than 7.00, respectively. In addition, the IC50 in assay [2] is 100 to 1000 nM; in assay [3], greater than 1000 nM.
For `CCN1c2ncc(CCOc3ccc(CCC(=O)O)c4ccccc34)cc2C(=O)N(C)c2ccc(C)nc21` [Entry 1026], in that order: 6.00 to 7.00, greater than 7.00, greater than 1000 nM and greater than 1000 nM.
For `CCN1c2ncc(CCOc3ccc(CCC(=O)O)c4ccccc34)cc2C(=O)Nc2c(C)cc(F)nc21` [Entry 1027], in that order: 6.00 to 7.00, greater than 7.00, 100 to 1000 nM and greater than 1000 nM.
As for `CCN1c2ncc(CCOc3ccc(/C=C(\C)C(=O)O)c4ccccc34)cc2C(=O)Nc2c(C)ccnc21` [Entry 1039], the pIC50 was 6.00 to 7.00 in assay [1] and greater than 7.00 on WT RT (HIV-1 RT). Further, the IC50 in assay [2] is 100 to 1000 nM; in assay [3] it was greater than 1000 nM.
For `CCN1c2ncc(CCOc3ccc(/C=C(\C)C(=O)O)c4ccccc34)cc2C(=O)Nc2c(C)cc(F)nc21` [Entry 1041], in that order: 6.00 to 7.00, greater than 7.00, 100 to 1000 nM and greater than 1000 nM.
For `CCN1c2ncc(CCOc3ccc(CC(C)C(=O)O)c4ccccc34)cc2C(=O)N(C)c2ccc(F)nc21` (stereo not shown) [Entry 1043] the same measures were 6.00 to 7.00, greater than 7.00, greater than 1000 nM and greater than 1000 nM.
`CCN1c2ncc(CCOc3ccc(CC(C)C(=O)O)c4ccccc34)cc2C(=O)N(C)c2ccc(C)nc21` (stereo not shown) [Entry 1045]: the pIC50 was 6.00 to 7.00 in assay [1] and greater than 7.00 at WT RT (HIV-1 RT). Further, the IC50 in assay [2] and in assay [3] was greater than 1000 nM throughout.
In the case of `CCN1c2ncc(CCOc3ccc(CC(C)C(=O)O)c4ccccc34)cc2C(=O)Nc2c(C)ccnc21` (stereo not shown) [Entry 1046], the results for the pIC50 (in assay [1]; at WT RT (HIV-1 RT)) were less than 6.00 and greater than 7.00, respectively. In addition, the IC50 in assay [2] and in assay [3] was greater than 1000 nM throughout.
On to `CCN1c2ncc(CCOc3ccc(CC(C)C(=O)O)c4ccccc34)cc2C(=O)Nc2c(C)cc(Cl)nc21` (stereo not shown) [Entry 1047], for which the results for the pIC50 (in assay [1]; against WT RT (HIV-1 RT)) were 6.00 to 7.00 and greater than 7.00, respectively. Also, the IC50 in assay [2] is 100 to 1000 nM; in assay [3], greater than 1000 nM.
For `CCN1c2ncc(CCOc3cccc4c(S(N)(=O)=O)cccc34)cc2C(=O)N(C)c2cccnc21` [Entry 2004] the same measures were greater than 7.00, greater than 7.00, 100 to 1000 nM and 100 to 1000 nM.
`CCN1c2ncc(CCOc3ccc(S(=O)(=O)NC(C)=O)c4ccccc34)cc2C(=O)N(C)c2cccnc21` [Entry 2005]: the pIC50 is 6.00 to 7.00 in assay [1] (setting [4]), less than 6.00 in assay [2], less than 6.00 in assay [3] and greater than 7.00 on WT RT (HIV-1 RT) (setting [5]).
In the case of `CCN1c2ncc(CCOc3ccc(NC(=O)CC(C)(C)C(=O)O)c4ccccc34)cc2C(=O)N(C)c2cccnc21` [Entry 2007], the pIC50 in assay [1] (setting [4]) is 6.00 to 7.00; in assay [2] it was less than 6.00; in assay [3], less than 6.00; at WT RT (HIV-1 RT) (setting [5]) it was greater than 7.00.
As to `CCN1c2ncc(CCOc3ccc(C(=O)O)c4ccccc34)cc2C(=O)N(C)c2cccnc21` [Entry 2010], the pIC50 is 6.00 to 7.00 in assay [1] and greater than 7.00 against WT RT (HIV-1 RT). Moreover, the half-inhibitory concentration (IC50) in assay [2] and in assay [3] was greater than 1000 nM in each case.
Regarding `CCN1c2ncc(CCOc3ccc(CC(=O)NS(C)(=O)=O)c4ccccc34)cc2C(=O)N(C)c2cccnc21` [Entry 2012], the pIC50 in assay [1] (setting [4]) was less than 6.00; in assay [2], less than 6.00; in assay [3], less than 6.00; at WT RT (HIV-1 RT) (setting [5]), greater than 7.00.
Turning to `CCN1c2ncc(CCOc3ccc(/C=C/C(=O)O)c4ccccc34)cc2C(=O)N(C)c2cccnc21` [Entry 2013], the pIC50 in assay [1] (setting [6]) was 6.00 to 7.00; in assay [2], less than 6.00. Further, in assay [3], the IC50 was greater than 1000 nM.
As to `CCN1c2ncc(CCOc3ccc(/C=C/C(=O)O)c4ccccc34)cc2C(=O)Nc2c(C)cc(F)nc21` [Entry 2015], the pIC50 in assay [1] (setting [6]) is 6.00 to 7.00; in assay [3], less than 6.00; on WT RT (HIV-1 RT) (setting [7]), greater than 7.00. Moreover, in assay [2], the IC50 lay in the range of 100 to 1000 nM.
With `CCN1c2ncc(CCOc3ccc(/C=C/C(=O)O)c4ccccc34)cc2C(=O)N(C)c2ccc(C)nc21` [Entry 2017], the pIC50 was 6.00 to 7.00 in assay [1] (setting [6]) and greater than 7.00 on WT RT (HIV-1 RT) (setting [7]). Moreover, the IC50 in assay [2] and in assay [3] was greater than 1000 nM each time.
As for `CCN1c2ncc(CCOc3ccc(CC(C)C(=O)O)c4ccccc34)cc2C(=O)N(C)c2cccnc21` (stereo not shown) [Entry 2021], the pIC50 at WT RT (HIV-1 RT) (setting [5]) is 6.00 to 7.00.
Turning to `CCN1c2ncc(CCOc3ccc4cc(C(=O)O)ccc4c3)cc2C(=O)N(C)c2cccnc21` [Entry 3001], the results for the pIC50 (in assay [1]; against WT RT (HIV-1 RT)) were 6.00 to 7.00 and greater than 7.00, respectively. Besides, the IC50 is 100 to 1000 nM in assay [2] and greater than 1000 nM in assay [3].
Consider `CCN1c2ncc(CCOc3ccc4cc(CC(=O)O)ccc4c3)cc2C(=O)N(C)c2cccnc21` [Entry 3004], for which the figures for the pIC50 (in assay [1]; at WT RT (HIV-1 RT)) were less than 6.00 and greater than 7.00, respectively. Also, the figures for the IC50 in assay [2] and in assay [3] were 100 to 1000 nM and greater than 1000 nM, respectively.
`CCN1c2ncc(CCOc3cccc4c3CCCN4C(=O)CC(=O)O)cc2C(=O)N(C)c2cccnc21` [Entry 6002] gave a pIC50 against WT RT (HIV-1 RT) greater than 7.00.

Usually IC50 stands for the concentration needed to halve the response being measured. A lower IC50 goes with greater potency in that assay.

Source of the values: patent US6673791B2, “Non-nucleoside reverse transcriptase inhibitors” (Boehringer Ingelheim (Canada) Ltd., priority 2001, dated 2004).
